Consider two compounds from patent US8506928B2, “Methods and compounds for targeting tissues” (The Regents of the University of California, priority 2007, dated 2013).

Residues, ends and D or L forms follow the SMILES beside them.

For one series, the system named is heart endothelium. Conditions: described in [4]; cited from earlier work.
The nature of series [1]: Pre-administration of RES inhibitors before CRPPR-3 liposomes. It is filed as in vivo, mice. Conditions: for decrease of accumulation within the heart: 90 minute time point, pre-administration before CRPPR-3 liposomes; for ratio of radioactivity in the heart with and without inhibitors: well counts at 90 minutes after CRPPR-3 liposome injection. How it is done: Blank liposomes: blank liposomes (DPPC:DSPE-PEG2000=98:2 (mol/mol), with diameter 100 nm) with 300 μg lipids (12 mg/kg) in 100 μl saline were injected 15 minutes before the radiolabeled targeted liposomes. Polyinosinic acid (PI): PI (P4154), purchased from Sigma-Aldrich, was dissolved in 0.9% sterile injection saline at 2 mg/ml. A small amount of sodium hydroxide solution was added to dissolve PI powder and the pH of the PI solution was adjusted to 7.4 with HCl solution. 5 μl of PI solution (˜10 μg of PI, 0.4 mg/kg) was diluted with 100 μl saline and injected 1 minute before the injection of the radiolabeled targeted liposomes. Control animals received an equal volume of saline solution. Clodronate liposomes: Clodronate liposomes were prepared as in [21]. 100 μl of clodronate liposomes (˜0.05 mg, 2 mg/kg) were injected 24 hours in advance of the administration of radiolabeled targeted liposomes. Control animals received an equal volume of saline solution. Free CRPPR Peptide (SEQ ID NO: 1): 700 μg of CRPPR peptides (SEQ ID NO: 1) (25 mg/kg) were injected 1 minute before the administration of radiolabeled targeted liposomes. Control animals received an equal volume of injection saline solution.

For the compound `NC(N)=NCCC[C@H](NC(=O)[C@@H]1CCCN1C(=O)[C@@H]1CCCN1C(=O)[C@H](CCCN=C(N)N)NC(=O)[C@@H](N)CS)C(=O)O` [CRPPR] (H-CRPPR-OH), the “target-to-muscle ratio, phage targeting” value with heart endothelium is “greater than 300 fold”. Also, in series [1], the “decrease of accumulation within the heart” value is given as about 19%; the “ratio of radioactivity in the heart with and without inhibitors” value came to 0.81.
Regarding Polyinosinic acid [PI], in series [1], the “decrease of accumulation within the heart” value amounted to 41%; the “ratio of radioactivity in the heart with and without inhibitors” value is 0.59.
